Experiments:
MET = experiment: HGF-induced dimerization of MET (BS3 cross-linking, Western blotting); assay type: cell-based, human; details: 25 ng/mL HGF
Protocol: MET is also called hepatocyte growth factor receptor (HGFR). The MET gene is an important protooncogene in a variety of human cancers. To analyze dimerization of MET, hepatocellular carcinoma cells are incubated with or without 25 ng/mL of human HGF in DMEM on ice for 5 minutes. Cross-linker Bis(sulfosuccinimidyl) suberate (BS3, 0.25 mmol/L, Thermo Scientific) is added to cells and reacted at 37° C. for 5 minutes. Cells are then transferred on ice for 10 minutes. Reactions are blocked by adding 50 mmol/L of Tris-HCl (pH 7.4). Cell lysates are separated by 6% SDS-PAGE and immunoblotted with anti-MET antibody.
Because HGF-induced dimerization of MET is an initial and crucial step for the activation of MET signaling, whether C1GALT1 could affect MET dimerization was analyzed. FIGS. 19A-19B are autoradiograms illustrating the effects of C1GALT1 on dimerization of MET in hepatocellular carcinoma cells in accordance with an embodiment of the present invention. Hepatocellular carcinoma cells were starved for 5 hours and then treated with (+) or without (−) 25 ng/mL of HGF. Cell lysates were cross-linked by BS3 and then analyzed by Western blotting with anti-MET antibody. The arrows indicate the dimer (D) of MET, and the arrowheads indicate the monomer (M). Markers of molecular weight are shown on the left. GAPDH is an internal control.

C1GALT1 = experiment: Knockdown of C1GALT1 expression confirmed by Western blotting / Q-PCR; assay type: cell-based, human; details: siRNA
Source text: According to an embodiment of the present invention, in the experiment in vitro, two siRNA oligonucleotides against C1GALT1, 5′-[…] GG-3′ (SEQ ID NO: 1) and 5′-[…]-3′ (SEQ ID NO: 2), used as the C1GALT1 inhibition substance and a negative control siRNA of medium GC are synthesized by Invitrogen company.
According to another embodiment of the present invention, in the experiment in vivo, the pLKO/C1GALT1-shRNA plasmid containing the sequence, 5′-CCCAGCCTAATG TTCTTCATA-3′(SEQ ID NO: 13), against C1GALT1 is used as the C1GALT1 inhibition substance. The pLKO/C1GALT1-shRNA plasmid and non-targeting pLKO plasmids (as a negative control) are purchased from National RNAi Core Facility (Academia Sinica, Taipei, Taiwan). The short hairpin RNA (shRNA, 20 nM) plasmids are transfected with Lipofectamine® 2000 and selected with 500 ng/mL of puromycin for 10 days. […] Subsequently, 7×10^6 of hepatocellular carcinoma cells containing the pLKO/C1GALT1-shRNA plasmid and the non-targeting pLKO plasmid are subcutaneously injected into severe combined immunodeficient (SCID) mice (n=4 for each group). Tumor volumes are monitored for […]. Excised tumors are weighed and lysed for Western blotting and immunohistochemistry.
Equal amounts of protein samples are mixed with 5× sample buffer and boiled for 5 minutes, separated on SDS-polyacrylamide gels, and then transferred to PVDF membrane. The membranes are blocked in 5% BSA for 1 hour at room temperature, and incubated with primary antibodies overnight at 4° C. Anti-phosphotyrosine (4G10) antibody (Millipore, Billerica, Mass.), antibodies against C1GALT1, GAPDH, IGF-IR, MET pY 1234/5, IGF-IR pY1135/1136, p-AKT, p-ERK1/2, and ERK1/2 antibody (BD Pharmingen, San Jose, Calif.) are used. The blots are then incubated with secondary antibody conjugated with horseradish peroxidase and immunoreacted bands are detected by ECL reagents and exposed on x-ray film.
Total RNA is isolated using TRIzol reagent (Invitrogen) according to the manufacturer's protocol. Two micrograms of total RNA is used in reverse transcription reaction using the Superscript III First-Strand cDNA Synthesis Kit (Invitrogen). The cDNA is subjected to quantitative real-time RT-PCR (Q-PCR). Quantitative PCR System Mx3000P (Stratagene, La Jolla, Calif.) is used for quantitative real-time RT-PCR. Reactions are performed in a 20 μl volume with 2 μl cDNA, 400 nM of sense and anti-sense primers, and 10 μl Brilliant®SYBR®Green Q-PCR Master Mix (Stratagene). Primer sets are designed as the following: Primers for C1GALT1 are 5′-[…]-3′ (SEQ ID NO: 5) and 5′-[…]-3′(SEQ ID NO: 6). Primers for GAPDH are 5 ‘-[…]-3’ (SEQ ID NO: 8) and 5′-[…]-3′ (SEQ ID NO: 7). The relative quantity of gene expression normalized to GAPDH is analyzed using MxPro Software (Stratagene). […]

Row | Substance | HGF-induced dimerization of MET (MET; HA22T cells) | HGF-induced dimerization of MET (MET; PLC5 cells) | C1GALT1 expression (C1GALT1; HA22T cells) | C1GALT1 expression (C1GALT1; PLC5 cells)
1 | C1GALT1 si-1: siRNA oligonucleotide against C1GALT1, presumably SEQ ID NO: 1, UUAGUAUACGUUCAGGUAAGGUAGG (chemistry not given here) | suppressed | suppressed | knockdown of C1GALT1 | knockdown of C1GALT1
2 | C1GALT1 si-2: siRNA oligonucleotide against C1GALT1, presumably SEQ ID NO: 2, UUAUGUUGGCUAGAAUCUGCAUUGA (chemistry not given here) | – | – | knockdown of C1GALT1 | knockdown of C1GALT1
